Results reported in PubChem BioAssay AID248 (DTP/NCI, 2004).
Values joined by “and” are separate entries in the source; they are usually repeats but may differ in a detail not shown here. Equal values may be shown once. Inconclusive results and toxic doses are left out. Rule as the data show it: active = T/C of 150% or more; inactive = T/C below 125%.

Tested on: L1210 leukemia ip in BDF1 mice, survival T/C
Assay: NCI In Vivo Anticancer Drug Screen. Data for tumor model L1210 Leukemia (intraperitoneal) in B6D2F1 (BDF1) mice
Conditions: endpoint: mean survival time, higher = longer survival
Procedure, shortened: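 Read-out is survival time, reported as the treated-group measurement over the vehicle-control measurement.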

[1] = dose: 100.0 mg/kg/injection, schedule: Q01DX001 (ip), vehicle: Klucel (hydroxypropylcellulose) (HPC)
[2] = dose: 100.0 mg/kg/injection, schedule: Q04DX003 (ip), vehicle: Klucel (hydroxypropylcellulose) (HPC)
[3] = dose: 200.0 mg/kg/injection, schedule: Q01DX001 (ip), vehicle: Klucel (hydroxypropylcellulose) (HPC)
[4] = dose: 200.0 mg/kg/injection, schedule: Q04DX003 (ip), vehicle: Klucel (hydroxypropylcellulose) (HPC)
[5] = dose: 400.0 mg/kg/injection, schedule: Q01DX001 (ip), vehicle: Klucel (hydroxypropylcellulose) (HPC)
[6] = dose: 400.0 mg/kg/injection, schedule: Q04DX003 (ip), vehicle: Klucel (hydroxypropylcellulose) (HPC)
[7] = dose: 100.0 mg/kg/injection, schedule: Q01DX009 (ip), vehicle: saline
[8] = dose: 200.0 mg/kg/injection, schedule: Q01DX009 (ip), vehicle: saline
[9] = dose: 100.0 mg/kg/injection, schedule: Q01DX001 (ip), vehicle: saline
[10] = dose: 200.0 mg/kg/injection, schedule: Q01DX001 (ip), vehicle: saline
[11] = dose: 100.0 mg/kg/injection, schedule: Q01DX009 (ip), vehicle: saline with Tween-80
[12] = dose: 100.0 mg/kg/injection, schedule: Q04DX002 (ip), vehicle: saline with Tween-80
[13] = dose: 200.0 mg/kg/injection, schedule: Q01DX009 (ip), vehicle: saline with Tween-80
[14] = dose: 200.0 mg/kg/injection, schedule: Q04DX002 (ip), vehicle: saline with Tween-80
[15] = dose: 400.0 mg/kg/injection, schedule: Q01DX009 (ip), vehicle: saline with Tween-80
[16] = dose: 400.0 mg/kg/injection, schedule: Q04DX002 (ip), vehicle: saline with Tween-80
[17] = dose: 25.0 mg/kg/injection, schedule: Q01DX009 (ip), vehicle: saline
[18] = dose: 50.0 mg/kg/injection, schedule: Q01DX009 (ip), vehicle: saline
[19] = dose: 100.0 mg/kg/injection, schedule: Q01DX001 (ip), vehicle: carboxymethylcellulose (CMC)
[20] = dose: 200.0 mg/kg/injection, schedule: Q01DX001 (ip), vehicle: carboxymethylcellulose (CMC)
[21] = dose: 400.0 mg/kg/injection, schedule: Q01DX001 (ip), vehicle: carboxymethylcellulose (CMC)
[22] = dose: 400.0 mg/kg/injection, schedule: Q01DX001 (ip), vehicle: saline
[23] = dose: 100.0 mg/kg/injection, schedule: Q04DX003 (ip), vehicle: saline
[24] = dose: 200.0 mg/kg/injection, schedule: Q04DX003 (ip), vehicle: saline
[25] = dose: 400.0 mg/kg/injection, schedule: Q04DX003 (ip), vehicle: saline

Measured: T/C

CC(=O)C1=C(O)C(c2ccccc2)c2ccccc21 (configuration not stated)
inactive: [1] 108 % of control | [2] 100 % of control | [3] 103 % of control | [4] 103 % of control | [5] 100 % of control | [6] 95 % of control

COc1cc2cnccc2cc1OCc1ccccc1
inactive: dose: 25.0 mg/kg/injection, schedule: Q01DX009 (ip), vehicle: water 96 % of control | dose: 50.0 mg/kg/injection, schedule: Q01DX009 (ip), vehicle: water 97 % of control | dose: 100.0 mg/kg/injection, schedule: Q01DX009 (ip), vehicle: water 100 % of control

O=S(=O)(CC(Cl)c1ccccc1)c1ccccc1 (configuration not stated)
inactive: dose: 100.0 mg/kg/injection, schedule: Q01DX001 (ip), vehicle: acetone 95 % of control | [7] 91 % of control | dose: 200.0 mg/kg/injection, schedule: Q01DX001 (ip), vehicle: acetone 98 % of control | [8] 94 % of control | dose: 400.0 mg/kg/injection, schedule: Q01DX001 (ip), vehicle: acetone 92 % of control | dose: 400.0 mg/kg/injection, schedule: Q01DX009 (ip), vehicle: saline 89 % of control

NNc1cnc2ccccc2n1
inactive: dose: 100.0 mg/kg/injection, schedule: Q01DX009 (ip), vehicle: saline sonified 90 % of control | dose: 100.0 mg/kg/injection, schedule: Q04DX003 (ip), vehicle: saline with Tween-80 101 % of control | dose: 200.0 mg/kg/injection, schedule: Q04DX003 (ip), vehicle: saline with Tween-80 97 % of control | dose: 400.0 mg/kg/injection, schedule: Q04DX003 (ip), vehicle: saline with Tween-80 113 % of control

COc1ccc(NCC(O)CN2CCCC2)cc1 (configuration not stated)
inactive: [9] 112 % of control | [10] 104 % of control

CCCCCCCCC(=O)[O][Hg][c]1ccccc1
inactive: dose: 75.0 mg/kg/injection, schedule: Q01DX001 (ip), vehicle: other 106 % of control

Nc1cc2ncccc2c2ncccc12
inactive: dose: 75.0 mg/kg/injection, schedule: Q01DX001 (ip), vehicle: saline 107 % of control | dose: 150.0 mg/kg/injection, schedule: Q01DX001 (ip), vehicle: saline 102 % of control

NNc1c(C(N)=O)c2c(N)ncnc2n1C1OC(CO)C(O)C1O (configuration not stated)
inactive: dose: 100.0 mg/kg/injection, schedule: Q01DX005 (ip), vehicle: saline 96 % of control | dose: 200.0 mg/kg/injection, schedule: Q01DX005 (ip), vehicle: saline 100 % of control

Cc1c2ccccc2cc2c1ccc1cccc(F)c12
inactive: dose: 12.5 mg/kg/injection, schedule: Q01DX009 (ip), vehicle: saline with Tween-80 107 % of control | dose: 25.0 mg/kg/injection, schedule: Q01DX009 (ip), vehicle: saline with Tween-80 104 % of control | dose: 50.0 mg/kg/injection, schedule: Q01DX009 (ip), vehicle: saline with Tween-80 96 % of control

CCCCn1c(Cl)c(C(=O)O)c2ccccc21
inactive: dose: 50.0 mg/kg/injection, schedule: Q04DX003 (ip), vehicle: Klucel (hydroxypropylcellulose) (HPC) 94 % of control | [2] 91 % of control | [4] 90 % of control

Cc1cc(O)c(C)c(C)c1N=Nc1ccccc1
inactive: [11] 101 % of control | [12] 108 % of control | [13] 89 % of control | [14] 90 % of control | [15] 95 % of control | [16] 93 % of control

Cc1ccc(-n2c(O)c(C=N)c(=O)n(-c3ccc(C)cc3)c2=O)cc1
inactive: [11] 98 % of control | [13] 98 % of control | [15] 95 % of control

CN(C)c1ccc(S(=O)(=O)c2ccc(N(C)C)c([N+](=O)[O-])c2)cc1[N+](=O)[O-]
inactive: dose: 100.0 mg/kg/injection, schedule: Q04DX002 (ip), vehicle: DMSO 107 % of control | dose: 200.0 mg/kg/injection, schedule: Q04DX002 (ip), vehicle: DMSO 103 % of control | dose: 400.0 mg/kg/injection, schedule: Q04DX002 (ip), vehicle: DMSO 103 % of control

CC1C=CC=CC=C1
inactive: [1] 98 % of control | [2] 102 % of control | [3] 90 % of control | [4] 93 % of control | [5] 92 % of control | [6] 86 % of control

CCCCSc1ccc2c(cc1=O)C(N)CCc1cc(OC)c(OC)c(OC)c1-2 (configuration not stated)
inactive: dose: 12.5 mg/kg/injection, schedule: Q04DX002 (ip), vehicle: saline 104 % of control | dose: 25.0 mg/kg/injection, schedule: Q04DX002 (ip), vehicle: saline 88 % of control | dose: 50.0 mg/kg/injection, schedule: Q04DX002 (ip), vehicle: saline 95 % of control

Cc1cccc(NC(=O)CCc2ccc(N3C(N)=NC(N)=NC3(C)C)cc2)c1
inactive: dose: 3.13 mg/kg/injection, schedule: Q01DX009 (ip), vehicle: saline 102 % of control | dose: 6.25 mg/kg/injection, schedule: Q01DX009 (ip), vehicle: saline 94 % of control | dose: 12.5 mg/kg/injection, schedule: Q01DX009 (ip), vehicle: saline 97 % of control | [17] 96 % of control | [18] 103 % of control

CSc1n[nH]c(Cl)n1
inactive: dose: 25.0 mg/kg/injection, schedule: Q04DX002 (ip), vehicle: saline with Tween-80 98 % of control and 103 % of control | dose: 50.0 mg/kg/injection, schedule: Q04DX002 (ip), vehicle: saline with Tween-80 102 % of control and 106 % of control | [12] 103 % of control and 107 % of control and 114 % of control | [14] 104 % of control and 113 % of control and 90 % of control | [16] 93 % of control

CC1=NN(c2ccccc2)C(=O)C1N=Nc1ccc(S(N)(=O)=O)cc1 (configuration not stated)
inactive: [19] 95 % of control | [20] 93 % of control | [21] 93 % of control

CC1=Nc2ccccc2/C1=C\c1c(C)[nH]c2ccccc12
inactive: dose: 25.0 mg/kg/injection, schedule: Q01DX009 (ip), vehicle: Klucel (hydroxypropylcellulose) (HPC) 97 % of control | dose: 50.0 mg/kg/injection, schedule: Q01DX009 (ip), vehicle: Klucel (hydroxypropylcellulose) (HPC) 97 % of control | dose: 50.0 mg/kg/injection, schedule: Q01DX009 (ip), vehicle: acetone 101 % of control | [9] 96 % of control | dose: 100.0 mg/kg/injection, schedule: Q01DX009 (ip), vehicle: Klucel (hydroxypropylcellulose) (HPC) 97 % of control | dose: 100.0 mg/kg/injection, schedule: Q04DX003 (ip), vehicle: acetone 96 % of control | [10] 101 % of control | dose: 200.0 mg/kg/injection, schedule: Q01DX009 (ip), vehicle: Klucel (hydroxypropylcellulose) (HPC) 97 % of control | dose: 200.0 mg/kg/injection, schedule: Q04DX003 (ip), vehicle: acetone 99 % of control | [22] 104 % of control

Nc1nc(=O)n(CC(=O)c2ccco2)cc1F
inactive: [7] 100 % of control | [23] 95 % of control | [8] 94 % of control | [24] 97 % of control | [25] 93 % of control

Cc1nccnc1N
inactive: [17] 112 % of control | [18] 110 % of control | [7] 95 % of control and 108 % of control | [23] 98 % of control | [24] 109 % of control | [25] 102 % of control

CCSCC1OC(n2cnc3c(N)ncnc32)CC1SCC (configuration not stated)
inactive: dose: 50.0 mg/kg/injection, schedule: Q01DX001 (ip), vehicle: carboxymethylcellulose (CMC) 104 % of control | [19] 104 % of control | [9] 98 % of control | [20] 111 % of control | [10] 89 % of control | [21] 101 % of control | [22] 92 % of control

CC(C)CCCC(C)C1CCC2C3CC=C4CC(OC(=O)CCCC5CCCCC5)CCC4(C)C3CCC12C (configuration not stated)
inactive: [2] 94 % of control | [4] 94 % of control | [6] 94 % of control
